Measurements as given in PMC5640650, “NatD promotes lung cancer progression by preventing histone H4 serine phosphorylation to activate Slug expression” (Nature Communications, 2017).

Test system: Slug promoter
Assay: ChIP assay on the Slug promoter, H1299 cells
Type: cell-based, human
Details: vs Scr
Text: Fig. 6 Nt-acetylation of histone H4 antagonizes phosphorylation of histone H4 serine 1 to regulate Slug expression. a Western blot analysis of indicated histone H4 modifications in Scr and NatD-KD H1299 cells. Histone H4 served as a loading control. b ChIP analysis of the enrichment of indicated histone H4 modifications on the Slug promoter in Scr and NatD-KD H1299 cells. IgG served as a negative control. Results are shown as mean ± s.d. from three independent experiments; two-tailed Student’s t-test, *P < 0.05, **P < 0.01 compared with the Scr control. c ChIP analysis of the enrichment of H3K4me3 and H3K27me3 on the Slug promoter in Scr and NatD-KD H1299 cells. IgG served as a negative control. Results are shown as mean ± s.d. from three independent experiments; two-tailed Student’s t-test, **P < 0.01 compared with the Scr control. d Western blot analysis of indicated proteins from H1299 cells overexpressing NatDΔ or wild-type NatD. Histone H4 served as a loading control. e ChIP analysis of the enrichment of Nt-ac-H4 and H4S1ph on Slug promoter in H1299 cells overexpressing NatDΔ or wild-type NatD. IgG served as a negative control. Results are shown as mean ± s.d. from three independent experiments; two-tailed Student’s t-test, *P < 0.05, **P < 0.01 compared with the wild-type control
Fig. 7 Downregulation of Nt-acetylation of histone H4 facilitates nuclear accumulation of CK2α and its binding to histone H4 in lung cancer cells. a Representative confocal scanning images of CK2α localization in Scr and H1299 cells (left panel). The staining intensity of CK2α was quantified by software ImageJ from NIH (right diagram). Scale bars, 5 μm. […] Equal peptide biotinylated on C terminus is shown by dot blot analysis with streptavidin (middle panel). […] IgG served as a negative control. Results are shown as mean ± s.d. from three independent experiments; two-tailed Student’s t-test, **P < 0.01 compared with the indicated control. g Quantitative real-time PCR analysis of mRNA levels of CK2α and Slug normalized to GAPDH in Scr and NatD-KD H1299 cells in the absence or presence of siRNA to CK2α. NC, siRNA mimics negative control. Data are mean ± s.d. of three independent experiments; Student’s t-test, *P < 0.05, **P < 0.01 compared with the indicated control. h Western blot analysis of indicated proteins from Scr and NatD-KD H1299 cells in the absence or presence of siRNA to CK2α.
ChIP assays were performed with H1299 cells in accordance with standard protocols. Normal rabbit IgG served as the control. ChIP samples were analyzed by quantitative real-time PCR using the FastStart Universal SYBR Green Master (Roche). A standard curve was prepared for each set of primers using serial titration of the input DNA. The percentage of ChIP DNA was calculated relative to the input DNA from primer-specific standard curves using the Rotor-Gene 6000 Series Software 1.7. The primer sequences for ChIP are listed in Supplementary Table 4. Antibodies used were: H4S1ph (Abcam; ab14723), H4K5ac (Millipore; CS204381), H4R3me2a (Active Motif; 39705), H4R3me2s (Abcam; ab5823), CK2α (Abcam; ab70774), H3K4me3 (Abcam; ab8580), and H3K27me3 (Abcam; ab6002).

## NatD-KD2: Human NatD shRNA KD2: 5′-GGTTGAATGTCTCCATTGA-3′, lentiviral (shRNA lentiviral)
  enrichment of CK2α on Slug promoter: significantly increased
  enrichment of H3K4me3 on Slug promoter: significantly reduced
  enrichment of H3K27me3 on Slug promoter: increased
  enrichment of H4R3me2a and H4K5ac on Slug promoter: significantly reduced
  enrichment of H4R3me2s on Slug promoter: unchanged
  enrichment of H4S1ph on Slug promoter: significantly increased
  enrichment of Nt-ac-H4 on Slug promoter: significantly reduced
